The source of these data is patent US5371081A, “N-substituted phenoxazines for treating multidrug resistant cancer cells” (St. Jude Children's Research Hospital, priority 1993, dated 1994).

Like-named read-outs stand apart in the source and are kept apart here.

A word on the IC50: it is the concentration at which inhibition is half-maximal.

Experiment [1] relates to KBCh^R -8-5. The experiment can be described thus: Cytotoxicity of N-substituted phenoxazines to tumor cells (clonogenic survival). Format: cell-based. Conditions: Homo sapiens, 168 h, 7 days, 37° C., read-out: IC50 (50% reduction in clonogenic survival). As to the method: (§1) The KBCh®-8-5 cells were plated in triplicate at a density of 1000 cells per well and GC3 at 3000 cells per well in Falcon 6-well flat-bottom tissue culture plates (Becton Dickinson Co., Lincoln Park, N.J.). After 24 h, incubation medium was replaced with 3 mL of fresh medium containing compounds 1-4 or 10-14 or 18 at concentrations ranging from 1-100 μm (final culture concentration, 0.1% DMSO), and cells were incubated at 37° C. for a further 7 days. The medium was aspirated and cells were washed once with 2 mL of 0.9% saline and dried overnight. Colonies were stained with 1 mL of 0.1% crystal violet followed by washing twice with distilled water and were counted using an automated ARTEK Model 880 colony counter. The IC50 values were determined from concentration-percent-cell-survival curves and were defined as the concentrations of phenoxazines required for 50% reduction in colonies compared to controls.
(§2) ^a IC50 is the concentration required to produce 50% reduction i
(§3) clonogenic survivial of GC3 /Cl and KBCH^R -85 cells under the
(§4) conditions described in Example 23.

Experiment [2] concerns GC3 /CL. Described as above. As to conditions: Homo sapiens, 168 h, 7 days, 37° C., read-out: IC50 (50% reduction in clonogenic survival). Format: cell-based. As to the method: as §1, §2, §3, §4
Experiment [3] relates to GC3 /Cl Cells. The experiment can be described thus: Vinca (VCR, VLB) accumulation, anti-MDR activity. Format: cell-based. As to conditions: Homo sapiens, compound 100 μM, 2 h, room temperature, mean of two experiments, SD <10%.
Experiment [4] concerns KB Ch^R -8-5 Cells. The experiment can be described thus: Vinca (VCR, VLB) accumulation, anti-MDR activity. It is filed as cell-based. As to conditions: Homo sapiens, compound 100 μM, 2 h, room temperature, mean of two experiments, SD <10%. The protocol:
The resistance of the KBCh®-8-5 cells was maintained by culturing them with colchicine (10 ng/ml).
Then, 2 mL of cell suspensions (2×10^6) were plated in 35×10 mm style "easy grip" culture dishes (Becton Dickinson Co., Lincoln Park, N.J.). Cells were allowed to attach to plastic overnight at 37° C. Medium was aspirated and cells were washed with (2×2 mL) physiologic tris (PT) buffer. […] VCR (sp.act. 7.1 ci/mmol) or 49.5 nm [^3 H] […] After 2 h of incubation at room temperature, medium was rapidly aspirated to terminate drug accumulation, and monolayers were washed four times with ice-cold PBS (g/L: NaCL 8.0; Na2 HPO4.12H2 O, 2.9; KCl 0.2; KH2 PO4, 0.2) and drained. To each dish, 1 ml of trypsin-EDTA (0.05% trypsin, 0.53 mM EDTA) was added. After 1 minute, monolayers were triturated to give a uniform suspension of cells, and radioactivity in 0.75 ml was determined by scintillation counting. Cell number per dish was determined on 200 μl of suspension using the method of Butler, and amounts of intracellular VCR or VLB were determined.

In experiment [5] the test system is GC3 /Cl Cells. The experiment can be described thus: Potentiation of cytotoxicity of vincristine and vinblastine. It is filed as cell-based. As to conditions: Homo sapiens, 168 h, read-out: IC50 of VLB alone. As to the method: (§5) Tumor cells were treated with graded concentrations of VCR and VLB in the absence or presence of nontoxic concentrations of the products of Examples 1, 3, 4 and 18. The plates were then transferred to a CO2 incubator and, after further incubation for 7 days at 37° C., colonies were enumerated as described in Example 23.
(§6) ^a IC50 concentration of modulator

The subject of experiment [6] is KB Ch^R -8-5 Cells. The description is as above. Conditions: Homo sapiens, 168 h, read-out: IC50 of VLB alone. Format: cell-based. As to the method:
as §5, §6

Experiment [7] has as its system KBCh®-8-5. The experiment in a line: Cross-resistance of cell line to VCR and VLB. As to conditions: KBCh®-8-5, colchicine selected MDR variant. It is filed as cell-based, human. The protocol: A cloned line of human colon adenocarcinoma, GC3 /Cl^31, which is intrinsically resistant to VCR (≈4-fold relative to KB-3-1), was routinely grown at 37° C. in antibiotic-free RPMI-1640 medium supplemented with 2 mM glutamine and 10% FBS (Hyclone Laboratories, Inc., Logan, Utah) in a humidified atmosphere of 5% CO2 and 95% air. Human epidermoid carcinoma KB-3-1 cells and a colchicine selected MDR variant, KBCh®-8-5, were obtained which was cross-resistant to VCR (45-fold) and VLB (6.3-fold); it was grown in monolayer culture at 37° C. in DMEM with 10% FBS and L-glutamine in a humidified atmosphere of 10% CO2 in air. The resistance of the KBCh®-8-5 cells was maintained by culturing them with colchicine (10 ng/ml).

For experiment [8], the system named is MDR. Conditions: in model systems; cited from earlier work.
[9] abbreviates: [3H] VCR 70.4 nm, read-out: Vinca Accumulation, VCR.
Setting [10] is: [3H] VLB 49.5 nm, read-out: Vinca Accumulation, VLB.

As to `ClCCCN1c2ccccc2Oc2ccccc21` [Compound 1, 10-(3'-chloropropyl)-phenoxazine], the 50% inhibitory concentration (IC50) in experiment [1] turned out to be 57 µM; in experiment [2], 83 µM. Besides, the figures for the activity at 100 µM in experiment [3] (setting [9]) and in experiment [4] (setting [9]) were 846% and 454%, respectively.

In the case of `CCN(CC)CCCN1c2ccccc2Oc2ccccc21` [Compound 2, 10-(3'-diethylaminopropyl)phenoxazine], the half-inhibitory concentration (IC50) in experiment [1] came out at 15 µM. For the same compound, the figures for the activity at 100 µM in experiment [3] (setting [9]) and in experiment [4] (setting [9]) were 439% and 546%, respectively.

Take `OCCN(CCO)CCCN1c2ccccc2Oc2ccccc21` [Compound 3, 10-(3'-bishydroxyethylaminopropyl)phenoxazine]: the IC50 in experiment [1] was 38 µM; in experiment [2] it was 37 µM. Also, the activity at 100 µM in experiment [3] (setting [9]) was 464%; in experiment [4] (setting [9]) it was 473%.

In the case of `c1ccc2c(c1)Oc1ccccc1N2CCCN1CCOCC1` [Compound 4, 10-(3'-N-morpholinopropyl)phenoxazine], the concentration for half-maximal inhibition (IC50) in experiment [1] was determined as 73 µM; in experiment [2], 40 µM. In addition, the activity at 100 µM came out at 634% in experiment [3] (setting [9]) and 742% in experiment [4] (setting [9]).

For the compound `c1ccc2c(c1)Oc1ccccc1N2CCCN1CCCCC1` [Compound 5, 10-(3'-N-piperidinopropyl)phenoxazine], the activity at 100 µM in experiment [3] (setting [9]) came to 282%; in experiment [4] (setting [9]) it was 435%.

As to `OCCN1CCN(CCCN2c3ccccc3Oc3ccccc32)CC1` [Compound 6, 10-(3'-β-hydroxyethylpiperazinopropyl) phenoxazine], the activity at 100 µM was 368% in experiment [3] (setting [9]) and 343% in experiment [4] (setting [9]).

Take `c1ccc2c(c1)Oc1ccccc1N2CCCN1CCCC1` [Compound 7, 10-(3'-N-pyrrolidinopropyl)phenoxazine]: the activity at 100 µM in experiment [3] (setting [9]) stood at 250%; in experiment [4] (setting [9]) it was 408%.

As for `ClCCCCN1c2ccccc2Oc2ccccc21` [Compound 8, 10-(4'-chlorobutyl)phenoxazine], the activity at 100 µM stood at 317% in experiment [3] (setting [9]) and 398% in experiment [4] (setting [9]).

As to `CCN(CC)CCCCN1c2ccccc2Oc2ccccc21` [Compound 9, 10-(4'-diethylaminobutyl)phenoxazine], the values for the activity at 100 µM in experiment [3] (setting [9]) and in experiment [4] (setting [9]) were 325% and 211%, respectively.

With `OCCN(CCO)CCCCN1c2ccccc2Oc2ccccc21` [Compound 10, 10-(4'-bishydroxyethylaminobutyl) phenoxazine], the IC50 in experiment [1] was below 10 µM; in experiment [2] it was 16 µM. Moreover, the results for the activity at 100 µM in experiment [3] (setting [9]) and in experiment [4] (setting [9]) were 382% and 92%, respectively.

In the case of `c1ccc2c(c1)Oc1ccccc1N2CCCCN1CCOCC1` [Compound 11, 10-(4'-N-morpholinobutyl)phenoxazine], the IC50 turned out to be 18 µM in experiment [1] and 27 µM in experiment [2]. The figures for the activity at 100 µM in experiment [3] (setting [9]) and in experiment [4] (setting [9]) were 477% and 702%, respectively.

As for `c1ccc2c(c1)Oc1ccccc1N2CCCCN1CCCCC1` [Compound 12, 10-(4'-N-piperidinobutyl)phenoxazine], the concentration for half-maximal inhibition (IC50) in experiment [1] is below 10 µM; in experiment [2] it was 7 µM. For the same compound, the activity at 100 µM is 416% in experiment [3] (setting [9]) and 196% in experiment [4] (setting [9]).

Take `OCCN1CCN(CCCCN2c3ccccc3Oc3ccccc32)CC1` [Compound 13, 10-(4'-β-hydroxyethylpiperazinobutyl) phenoxazine]: the 50% inhibitory concentration (IC50) in experiment [1] is below 10 µM; in experiment [2], 7 µM. The values for the activity at 100 µM in experiment [3] (setting [9]), in experiment [4] (setting [9]) and in experiment [4] (setting [10]) were 543%, 91% and 188%, respectively.

Turning to `c1ccc2c(c1)Oc1ccccc1N2CCCCN1CCCC1` [Compound 14, 10-(4'-N-pyrrolidinobutyl)phenoxazine], the concentration for half-maximal inhibition (IC50) is below 10 µM in experiment [1] and 8 µM in experiment [2]. The activity at 100 µM in experiment [3] (setting [9]) was found to be 412%; in experiment [4] (setting [9]) it was 198%; in experiment [4] (setting [10]), 477%.

Turning to `O=C(CCl)N1c2ccccc2Oc2ccccc21` [Compound 15, 10-(chloroacetyl)phenoxazine], the activity at 100 µM in experiment [3] (setting [9]) was 171%; in experiment [3] (setting [10]), 284%; in experiment [4] (setting [9]), 138%; in experiment [4] (setting [10]) it was 236%.

Turning to `CCN(CC)CC(=O)N1c2ccccc2Oc2ccccc21` [Compound 16, 10-(diethylaminoacetyl)phenoxazine], the activity at 100 µM in experiment [3] (setting [9]) was found to be 160%; in experiment [3] (setting [10]), 305%; in experiment [4] (setting [9]) it was 184%; in experiment [4] (setting [10]), 953%.

With `O=C(CN1CCOCC1)N1c2ccccc2Oc2ccccc21` [Compound 17, 10-(N-morpholinoacetyl)phenoxazine], the activity at 100 µM in experiment [3] (setting [9]) is 213%; in experiment [3] (setting [10]), 298%; in experiment [4] (setting [9]), 290%; in experiment [4] (setting [10]), 674%.

For `O=C(CN1CCCCC1)N1c2ccccc2Oc2ccccc21` [Compound 18, 10-(N-piperidinoacetyl)phenoxazine], the IC50 in experiment [1] is 73 µM. For the same compound, the activity at 100 µM in experiment [3] (setting [9]) was found to be 177%; in experiment [3] (setting [10]), 446%; in experiment [4] (setting [9]), 326%.

Turning to `O=C(CN1CCN(CCO)CC1)N1c2ccccc2Oc2ccccc21` [Compound 19, 10-(β-hydroxyethylpiperazinoacetyl)phenoxazine], the activity at 100 µM amounted to 157% in experiment [3] (setting [9]), 426% in experiment [3] (setting [10]), 280% in experiment [4] (setting [9]) and 776% in experiment [4] (setting [10]).

`O=C(CN1CCCC1)N1c2ccccc2Oc2ccccc21` [Compound 20, 10-(N-pyrrolidinoacetyl)phenoxazine]: the activity at 100 µM in experiment [3] (setting [9]) was determined as 151%; in experiment [3] (setting [10]) it was 296%; in experiment [4] (setting [9]), 188%; in experiment [4] (setting [10]), 776%.

In the case of `O=C(N1c2ccccc2Oc2ccccc21)C(F)(F)F` [Compound 21, 10-(trifluoroacetyl)phenoxazine], the activity at 100 µM in experiment [3] (setting [9]) was determined as 230%; in experiment [3] (setting [10]) it was 222%; in experiment [4] (setting [9]) it was 415%; in experiment [4] (setting [10]), 827%.

As for `CC[C@]1(O)C[C@@H]2CN(CCc3c([nH]c4ccccc34)[C@@](C(=O)OC)(c3cc4c(cc3OC)N(C)[C@H]3[C@@](O)(C(=O)OC)[C@H](OC(C)=O)[C@]5(CC)C=CCN6CC[C@]43[C@@H]65)C2)C1` [VLB], the IC50 in experiment [5] is 0.0074 µM; in experiment [6] it was 0.02 µM. Further, in experiment [7], the “cross-resistance to VLB” value is listed as 6.3 fold.

Take `COc1ccc(CCN(C)CCCC(C#N)(c2ccc(OC)c(OC)c2)C(C)C)cc1OC` (stereo not shown) [Verapamil]: the “modifying MDR” value in experiment [8] is “active in modifying MDR”.

For `C=C[C@H]1C[N@@]2CC[C@H]1C[C@@H]2[C@@H](O)c1ccnc2ccc(OC)cc12` [quinidine], in experiment [8], the “modifying MDR” value is reported as “active in modifying MDR”.

Regarding `COC(=O)[C@H]1[C@H]2C[C@@H]3c4[nH]c5cc(OC)ccc5c4CCN3C[C@H]2C[C@@H](OC(=O)c2cc(OC)c(OC)c(OC)c2)[C@@H]1OC` [reserpine], in experiment [8], the “modifying MDR” value was “active in modifying MDR”.

On to `CN1CCN(CCCN2c3ccccc3Sc3ccc(C(F)(F)F)cc32)CC1` [trifluoperazine], for which the “modifying MDR” value in experiment [8] is reported as “active in modifying MDR”.
